Data from patent US9771372B2, “Compounds useful as S100-inhibitors” (Active Biotech AB, priority 2014, dated 2017).

biological target: T1, interaction between biotinylated human S100A9 and human RAGE-Fc (Homo sapiens, UniProt P06702); assay: AlphaScreen inhibition assay, Biot-hS100A9:hRAGE-Fc (S100A9-RAGE inhibition assay); type: binding; settings: biot-hS100A9 and rhRAGE-Fc, Ca2+ and Zn2+ in buffer
T1 construct: made in house; host or cells: E. coli BL21(DE3)/pET1120 (pLR757)
T1 sequence (P06702 1-114): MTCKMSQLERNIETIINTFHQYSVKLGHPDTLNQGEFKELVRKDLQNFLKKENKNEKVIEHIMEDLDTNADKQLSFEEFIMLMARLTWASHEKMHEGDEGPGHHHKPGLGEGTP
Description: FIG. 1 is a schematic representation of an assay of the inhibition of the interaction between biotinylated human S100A9 and human RAGE-Fc using a small molecule S100A9 binder.
Inhibition Assay, Biot-hS100A9:hRAGE-Fc
The AlphaScreen (Amplified Luminescent Proximity Homogeneous Assay) contains two types of beads, Alpha Donor beads and Acceptor beads (PerkinElmer). Upon laser excitation at 680 nm a photosensitizer in the Donor bead converts ambient oxygen to a more excited singlet state. The singlet oxygen molecule diffuses (maximum 200 nm) to react with a thioxene derivative in the Acceptor bead and generates a chemiluminescence reaction. Fluorophores in the Acceptor bead subsequently emit light at 520-620 nm which can be detected in the EnVision® Multilabel plate Reader (PerkinElmer). The beads are light sensitive and all work with the beads is performed under subdued light conditions or using green filters on light sources (Roscolux Chroma Green #389, Rosco).
In the AlphaScreen Inhibition Assay described here, protein A (Staphylococcus aureus) conjugated Acceptor beads are used together with streptavidin coated Donor beads (Perkin Elmer 6760617M). The Acceptor beads are pre-incubated with Fc-tagged recombinant human RAGE (rhRAGE-Fc) allowing binding of the rhRAGE-Fc to protein A on the beads. Biotinylated human S100A9 (biot-hS100A9) is pre-incubated with the low molecular test compounds. The pre-mixes are then added to the wells of a micro-plate and incubated allowing interaction between biot-hS100A9 and rhRAGE-Fc. Subsequent addition of streptavidin coated Donor beads causes binding of the streptavidin to the biotinylated hS100A9. After an additional incubation the signal is measured.
Without inhibitory compounds, the interaction of biot-hS100A9 to rhRAGE-Fc will bring the Acceptor and Donor beads in close proximity thus generating a high signal. With an inhibitor present the complex will not form resulting in a decreased signal.
The AlphaScreen assay method is used for screening of the inhibitory effect of different compound samples at fixed concentrations or for IC50 determination by varying the compound concentrations. Samples of test compounds and references are prepared from solutions in DMSO. Relevant reference inhibitors and DMSO are used as controls for defined inhibition and non-inhibition, respectively in the assay. The percent inhibition in assay for test compounds and references are calculated by comparing their obtained assay signals with the signal values for the control with only DMSO (no compound).
Assay concentration of biotinylated hS100A9 and rhRAGE-Fc are batch dependent, and are determined and defined by separate cross-titration experiments using this AlphaScreen inhibition method to verify the optimal setup regarding signal strength and achievement of a defined inhibition with relevant reference compounds. The Final assay concentrations of Acceptor and Donor beads are 20 μg/mL.
Assay buffer is prepared by adding CaCl2 and ZnCl2 to HBS-P and is used freshly prepared in the experiment.
Biotin-hS100A9 solution for the experiment is prepared by dilution of appropriate amount of stock solution biot-hS100A9 in assay buffer (with CaCl2 and ZnCl2) and incubation in room temperature for 30 minutes.
rhRAGE-Fc solution for the experiment is prepared by dilution appropriate amount of rhRAGE-Fc stock in assay buffer.
Protein A Acceptor beads are diluted in assay buffer and are added to an equal volume of the prepared diluted rhRAGE-Fc solution. The beads are light sensitive. The vial is covered with aluminum foil and incubated at room temperature in the dark until biot-hS100A9+compound incubation is finished (see below).
Streptavidin-coated Donor beads are diluted in assay buffer. The beads are very light sensitive. The vial is covered with aluminum foil and incubated at room temperature in the dark until use (see below).
Samples of test compounds, appropriate references and DMSO control are diluted in assay buffer. […]

Q: For `O=C(CCC1CCCC1)NC1(C(F)(F)F)C(=O)Nc2nc3c(C(=O)O)cccc3n21` (single isomer, unassigned) [Example 231a, 3-(3-cyclopentylpropanamido)-4-oxo-3-(trifluoromethyl)-2,5,7-triazatricyclo[6.4.0.0^2,6]dodeca-1(12),6,8,10-tetraene-9-carboxylic acid], which IC50 is on record?
A: Its IC50 is 0.66 µM.

Q: `O=C(CCC1CCCC1)NC1(C(F)(F)F)C(=O)Nc2nc3c(C(=O)O)cccc3n21` (single isomer, unassigned) [Example 231b, 3-(3-cyclopentylpropanamido)-4-oxo-3-(trifluoromethyl)-2,5,7-triazatricyclo[6.4.0.0^2,6]dodeca-1(12),6,8,10-tetraene-9-carboxylic acid] was tested. Which IC50 did it give?
A: Its IC50 is 0.84 µM.

Q: With `O=C(CCC1CCCC1)NC1(C(F)(F)F)C(=O)Nc2nc3ccccc3n21` (stereo not shown) [Example 9, 3-cyclopentyl-N-[4-oxo-3-(trifluoromethyl)-2,5,7-triazatricyclo[6.4.0.0^2,6]dodeca-1(8),6,9,11-tetraen-3-yl]propanamide] as the compound, how does the IC50 read?
A: Its IC50 is 10.2 µM.

Q: Which IC50 does the source give for `O=C(NC1(C(F)(F)F)C(=O)Nc2nc3ccccc3n21)c1cc(Cl)cc(Cl)c1` (stereo not shown) [Example 12, 3,5-dichloro-N-[4-oxo-3-(trifluoromethyl)-2,5,7-triazatricyclo[6.4.0.0^2,6]dodeca-1(12),6,8,10-tetraen-3-yl]benzamide] here?
A: The IC50 was 3 µM.

Q: `Cc1cc2nc3n(c2cc1C)C(NC(=O)c1ccccc1)(C(F)(F)F)C(=O)N3` (stereo not shown) [Example 14, N-[10,11-dimethyl-4-oxo-3-(trifluoromethyl)-2,5,7-triazatricyclo[6.4.0.0^2,6]dodeca-1(8),6,9,11-tetraen-3-yl]benzamide] was tested. Which IC50 did it give?
A: Its IC50 is 3.5 µM.

Q: With `Cc1cc2nc3n(c2cc1C)C(NC(=O)CCc1ccccc1)(C(F)(F)F)C(=O)N3` (stereo not shown) [Example 15, N-[10,11-dimethyl-4-oxo-3-(trifluoromethyl)-2,5,7-triazatricyclo[6.4.0.0^2,6]dodeca-1(8),6,9,11-tetraen-3-yl]-3-phenylpropanamide] as the compound, how does the IC50 read?
A: Its IC50 is 1.4 µM.

Q: How did the IC50 turn out when `Cc1cc2nc3n(c2cc1C)C(NC(=O)CCc1ccccc1Cl)(C(F)(F)F)C(=O)N3` (stereo not shown) [Example 16, 3-(2-chlorophenyl)-N-[10,11-dimethyl-4-oxo-3-(trifluoromethyl)-2,5,7-triazatricyclo-[6.4.0.0^2,6]dodeca-1(8),6,9,11-tetraen-3-yl]propanamide] was run?
A: The IC50 was 1.3 µM.

Q: `Cc1cc2nc3n(c2cc1C)C(NC(=O)c1ccc(-c2ccccc2)cc1)(C(F)(F)F)C(=O)N3` (stereo not shown) [Example 18, N-[10,11-dimethyl-4-oxo-3-(trifluoromethyl)-2,5,7-triazatricyclo[6.4.0.0^2,6]dodeca-1(8),6,9,11-tetraen-3-yl]-4-phenylbenzamide] was tested. Which IC50 did it give?
A: Its IC50 is 2 µM.

Q: `Cc1cc2nc3n(c2cc1C)C(NC(=O)CCCC1CCCC1)(C(F)(F)F)C(=O)N3` (stereo not shown) [Example 19, 4-cyclopentyl-N-[10,11-dimethyl-4-oxo-3-(trifluoromethyl)-2,5,7-triazatricyclo-[6.4.0.0^2,6]dodeca-1(8),6,9,11-tetraen-3-yl]butanamide] was tested. Which IC50 did it give?
A: Its IC50 is 0.4 µM.

Q: `Cc1cc2nc3n(c2cc1C)C(NC(=O)CC1CCCCC1)(C(F)(F)F)C(=O)N3` (stereo not shown) [Example 20, 2-cyclohexyl-N-[10,11-dimethyl-4-oxo-3-(trifluoromethyl)-2,5,7-triazatricyclo-[6.4.0.0^2,6]dodeca-1(8),6,9,11-tetraen-3-yl]acetamide] was tested. Which IC50 did it give?
A: Its IC50 is 1.7 µM.

Q: `Cc1cc2nc3n(c2cc1C)C(NC(=O)c1ccc(OCC(F)(F)F)nc1)(C(F)(F)F)C(=O)N3` (stereo not shown) [Example 21, N-[10,11-dimethyl-4-oxo-3-(trifluoromethyl)-2,5,7-triazatricyclo[6.4.0.0^2,6]dodeca-1(8),6,9,11-tetraen-3-yl]-6-(2,2,2-trifluoroethoxy)pyridine-3-carboxamide] was tested. Which IC50 did it give?
A: The IC50 was 4 µM.

Q: For `Cc1cc2nc3n(c2cc1C)C(NC(=O)CCC1CCCC1)(C(F)(F)F)C(=O)N3` (stereo not shown) [Example 27, 3-cyclopentyl-N-[10,11-dimethyl-4-oxo-3-(trifluoromethyl)-2,5,7-triazatricyclo[6.4.0.0^2,6]-dodeca-1(12),6,8,10-tetraen-3-yl]propanamide], which IC50 is on record?
A: Its IC50 is 0.4 µM.

Q: `Cc1cc2nc3n(c2cc1C)C(NC(=O)c1ccc(Cl)nc1)(C(F)(F)F)C(=O)N3` (stereo not shown) [Example 28, 6-chloro-N-[10,11-dimethyl-4-oxo-3-(trifluoromethyl)-2,5,7-triazatricyclo[6.4.0.0^2,6]-dodeca-1(12),6,8,10-tetraen-3-yl]pyridine-3-carboxamide] was tested. Which IC50 did it give?
A: The IC50 was 3.7 µM.

Q: Which IC50 does the source give for `Cc1cc2nc3n(c2cc1C)C(NC(=O)CCc1c(Cl)cccc1Cl)(C(F)(F)F)C(=O)N3` (stereo not shown) [Example 29, 3-(2,6-dichlorophenyl)-N-[10,11-dimethyl-4-oxo-3-(trifluoromethyl)-2,5,7-triaza-tricyclo[6.4.0.0^2,6]dodeca-1(8),6,9,11-tetraen-3-yl]propanamide] here?
A: The IC50 was 5.4 µM.

Q: With `Cc1cc2nc3n(c2cc1C)C(NC(=O)c1cccc(NC2CCCCC2)n1)(C(F)(F)F)C(=O)N3` (stereo not shown) [Example 35, 6-(cyclohexylamino)-N-[10,11-dimethyl-4-oxo-3-(trifluoromethyl)-2,5,7-triazatricyclo-[6.4.0.0^2,6]dodeca-1(12),6,8,10-tetraen-3-yl]pyridine-2-carboxamide] as the compound, how does the IC50 read?
A: Its IC50 is 2.7 µM.

Q: With `Cc1cc2nc3n(c2cc1C)C(NC(=O)c1cccc(C2CCCCC2)n1)(C(F)(F)F)C(=O)N3` (stereo not shown) [Example 36, 6-cyclohexyl-N-[10,11-dimethyl-4-oxo-3-(trifluoromethyl)-2,5,7-triazatricyclo[6.4.0.0^2,6]-dodeca-1(12),6,8,10-tetraen-3-yl]pyridine-2-carboxamide] as the compound, how does the IC50 read?
A: Its IC50 is 3.7 µM.

Q: How did the IC50 turn out when `O=C(CCc1ccccc1)NC1(C(F)(F)F)C(=O)Nc2nc3cc(Cl)c(Cl)cc3n21` (stereo not shown) [Example 37, N-[10,11-dichloro-4-oxo-3-(trifluoromethyl)-2,5,7-triazatricyclo[6.4.0.0^2,6]dodeca-1(8),6,9,11-tetraen-3-yl]-3-phenylpropanamide] was run?
A: Its IC50 is 0.8 µM.

Q: How did the IC50 turn out when `O=C(NC1(C(F)(F)F)C(=O)Nc2nc3cc(Cl)c(Cl)cc3n21)c1ccccc1` (stereo not shown) [Example 38, N-[10,11-dichloro-4-oxo-3-(trifluoromethyl)-2,5,7-triazatricyclo[6.4.0.0^2,6]dodeca-1(8),6,9,11-tetraen-3-yl]benzamide] was run?
A: Its IC50 is 1 µM.

Q: For `O=C(CCC1CCCC1)NC1(C(F)(F)F)C(=O)Nc2nc3cc(Cl)c(Cl)cc3n21` (stereo not shown) [Example 39, 3-cyclopentyl-N-[10,11-dichloro-4-oxo-3-(trifluoromethyl)-2,5,7-triazatricyclo[6.4.0.0^2,6]-dodeca-1(12),6,8,10-tetraen-3-yl]propanamide], which IC50 is on record?
A: Its IC50 is 0.5 µM.

Q: For `O=C(NC1(C(F)(F)F)C(=O)Nc2nc3cc(Cl)c(Cl)cc3n21)C1CC2(CNC2)C1` (stereo not shown) [Example 40, N-[10,11-dichloro-4-oxo-3-(trifluoromethyl)-2,5,7-triazatricyclo[6.4.0.0^2,6]dodeca-1(12),6,8,10-tetraen-3-yl]-2-azaspiro[3.3]heptane-6-carboxamide], which IC50 is on record?
A: Its IC50 is 3.3 µM.

Q: For `COCC(=O)N1CCC(C(=O)NC2(C(F)(F)F)C(=O)Nc3nc4cc(Cl)c(Cl)cc4n32)CC1` (stereo not shown) [Example 44, N-[10,11-dichloro-4-oxo-3-(trifluoromethyl)-2,5,7-triazatricyclo[6.4.0.0^2,6]dodeca-1(12),6,8,10-tetraen-3-yl]-1-(2-methoxyacetyl)piperidine-4-carboxamide], which IC50 is on record?
A: Its IC50 is 4.7 µM.

Q: How did the IC50 turn out when `CC(C)CC(=O)N1CCC(C(=O)NC2(C(F)(F)F)C(=O)Nc3nc4cc(Cl)c(Cl)cc4n32)CC1` (stereo not shown) [Example 45, N-[10,11-dichloro-4-oxo-3-(trifluoromethyl)-2,5,7-triazatricyclo[6.4.0.0^2,6]dodeca-1(12),6,8,10-tetraen-3-yl]-1-(3-methylbutanoyl)piperidine-4-carboxamide] was run?
A: Its IC50 is 3 µM.
